Experimental data from patent US20020026052A1, “3-cyanoquinolines, 3-cyano-1,6-naphthyridines, and 3-cyano-1,7-naphthyridines as protein kinase inhibitors” (American Home Products Corporation, priority 2000, published 2002).
Values joined by “and” are separate entries in the source; they are usually repeats but may differ in a detail not shown here. Equal entries are not always repeated.

Key:
Src = Src (Homo sapiens, UniProt P12931); test: c-Src Kinase Assay (ELISA); format: biochemical
Procedure: Inhibitors of Src (partially purified preparation purchased from Upstate Biotechnologies) tyrosine kinase activity are analyzed in an ELISA format. […] Horseradish Peroxidase (HRP)-conjugated anti-phosphotyrosine is used to detect phosphorylated peptide via a color reaction. Conditions recommended by the manufacturer are employed.
Reaction conditions: Five microliter aliquots of each compound prepared fresh at the time of the assay are added as a solution in lOmM HEPES pH 7.5, 10% DMSO to the reaction well. Thirty-five microliters of reaction mix containing Src, buffer and peptide/bovine serum albumin mix are added to the compound wells and incubated at 30° C. for 10 minutes (reaction buffer: 5 OmM TrisHCI pH 7.5, l0 mM MgCl2, O.lmM EGTA, 0.5 mM Na3 VO4)-1H-. The reaction is started by addition of 10 microliters of ATP, incubated at 30° C. for 1 hour, and stopped by addition of 20 microliters of 0.5 M EDTA. The reaction mixture with the phosphorylated peptide is then transferred to a streptavidin-coated microtiter plate (provided in the kit) and allowed to bind for 20 minutes. IUnbound peptide and reaction mixture is decanted and the plate is washed with PBS six times. HRP-conjugated phosphotyrosine antibody supplied in the kit is incubated with the plate for one hour, then decanted. The plate is again washed with PBS six times.
Activity is determined as % inhibition as calculated by the formula: (1−Abs/Abs(max) ) ×100=% inhibition.

[1] = target: Rat2 fibroblasts stably transformed with v-Src/Hu c-Src fusion gene (Homo sapiens, UniProt P12931, cells depend on it, form not given); test: Anchorage Independent Src-transformed Fibroblast Proliferation Assay; format: cell-based, Rat; conditions: suspension growth, MTS reagent on Day 5; read-out: anch-indep src-tx fib IC50
Procedure: Anchorage Independent Src-transformed Fibroblast Proliferation Assay
Rat2 fibroblasts stably transformed with a plasmid containing a CMV promotor controlled v-Src/Hu c-Src fusion gene in which the catalytic domain of human c-Src was inserted in place of the v-Src catalytic domain in the v-Src gene are used for the measurement of src dependent suspension growth. […] Multiple entries for a given compound indicate that it was tested multiple times.

Raf1 (c-Raf) = target: T1, Raf1 (c-Raf) (Homo sapiens, UniProt P04049); test: Raf1 Kinase Cascade Assay; format: biochemical
T1 construct: Sf9 insect cell lysate containing full length 6 his-tagged recombinant human c—Raf; 6His; host or cells: Sf9 insect cells (c-Raf, used as lysate); E. coli (GST-MEK1, GST-MAPK)
T1 sequence (P04049 whole entry): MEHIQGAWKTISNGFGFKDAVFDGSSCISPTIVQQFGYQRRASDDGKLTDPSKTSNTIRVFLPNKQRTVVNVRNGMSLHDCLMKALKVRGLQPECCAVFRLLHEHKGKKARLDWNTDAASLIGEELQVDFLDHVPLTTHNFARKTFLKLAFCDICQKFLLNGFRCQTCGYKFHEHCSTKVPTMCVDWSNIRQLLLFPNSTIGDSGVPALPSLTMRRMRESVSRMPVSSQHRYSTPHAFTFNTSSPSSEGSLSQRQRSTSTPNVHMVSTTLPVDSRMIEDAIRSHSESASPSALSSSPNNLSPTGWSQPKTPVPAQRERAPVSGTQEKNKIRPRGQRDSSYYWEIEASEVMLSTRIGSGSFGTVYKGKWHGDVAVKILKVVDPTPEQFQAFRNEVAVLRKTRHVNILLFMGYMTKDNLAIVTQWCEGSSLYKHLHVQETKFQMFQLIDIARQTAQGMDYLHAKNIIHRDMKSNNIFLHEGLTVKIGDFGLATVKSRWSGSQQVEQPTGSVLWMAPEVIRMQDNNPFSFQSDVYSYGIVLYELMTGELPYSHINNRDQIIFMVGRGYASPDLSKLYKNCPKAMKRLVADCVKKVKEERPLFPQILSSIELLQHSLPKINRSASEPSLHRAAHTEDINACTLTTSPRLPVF
Procedure: Raf1 Kinase Cascade Assay Procedure
(Specific Activity: ˜200 U/ml). Human Non-active Mek-1—GST and human GST-MAP kinase (recombinant proteins produced in E. coli).
Stock Solutions Raf Assay:
Assay Dilution Buffer (ADB): 2 OmM MOPS, pH 7.2, 25 mM B-glycerol phosphate, mM EGTA, 1 mM sodium orthovanadate, 1 mM dithiothreitol. Magnesium/ATP Cocktail: 500 AM cold ATP and 75 mM magnesium chloride in ADB.
Active Kinase: Human Active c—Raf: Use at 0.4 U per assay point. Non-active GST-MEK1: Use at 0.1, ug per assay point. Non-active GST-p42 MAP Kinase: Use at 1.0 tg per assay point.
TBST—Tris (50 mM, pH 7.5)-1H-, NaCl (150 mM), Tween-20 (0.05%) Superblock (Pierce) Anti—GST Ab (Pharmacia) Anti-Phospho MAPK (Sigma) Anti-Mouse Ab/Europium conjugate (Wallac)
Assay Procedure: First Stage: c—Raf Dependent Activation of GST-MEK and GST-MAPK Add […] of ADB per assay (i.e. per well of a 96 well plate) Add 10 ml of 0.5 mM cold ATP and 75 mM magnesium chloride in ADB. Add 2 ml of c—Raf (0.4 U/assay), in conjunction with 1.6 ml non-active MEKI (0.4 mg/assay). Add 4 ml of non-active GST-p42 MAP Kinase (1.0 mg/assay). Incubate for 60 minutes at 30° C. in a shaking incubator. Transfer this mixture to an anti—GST Ab coated 96 well plate (Nunc Immunosorb plates coated o/n with a—GST, then blocked with Pierce Superblock). Incubate for 60 minutes at 30° C. in a shaking incubator Wash 3×with TBST, add Anti-Phospho MAPK (Sigma) (1:3000)-1H-Incubate for 60 minutes at 30° C. in a shaking incubator Wash 3×with TBST, add Anti-Mouse Ab/Europium conjugate (Wallac) (1:500)-1H-Incubate for 60 minutes at 30° C. in a shaking incubator Wash 3×with TBST, Read plates in Wallac Victor model Plate Reader. Collect data analyze in Excel for single point and IC50 determinations.
IC50 determinations - done on compounds from single point assays with >80% inhibition. Typically Raf-1 assay is run at compound concentrations from 10 μM to 30 nM in half log dilutions. (% inhibition is determined for each compound concentration).

| Molecule | IC50 (Src) | GI50 [1] | melting point | IC50 (Raf1 (c-Raf)) [nM] | ELISA c-src % inhibition (Src; at 10 nM) [% at 10 nM] |
| --- | --- | --- | --- | --- | --- |
| (E)-3-[3-Cyano-4-(2,4-dichloro-5-methoxyanilino)-7-quinolinyl]-2-propenoic acid [Example 99] | 44 nM | > 10000 nM |  |  |  |
| COc1cc(Nc2c(C#N)cnc3cc(-c4ccc(-c5nnn[nH]5)cc4)ccc23)c(Cl)cc1Cl [Example 105] | 10 nM | > 10000 nM and 5900 nM |  |  |  |
| 4-[(2,4-Dichloro-5-methoxyphenyl) amino]-7-[4-(4-morpholinyl) phenyl]-3-quinolinecarbonitrile [Example 128] | 3.2 nM | 640 nM |  |  |  |
| N#Cc1cnc2cc(-c3csc(CN4CCCCC4)c3)ccc2c1Nc1ccc(Sc2ccccc2)c(Cl)c1 [Example 462, 4-{[3-chloro-4-(phenylsulfanyl)phenyl]amino}-7-[5-(1-piperidinylmethyl)-3-thienyl]-3-quinolinecarbonitrile] |  |  |  | 50 |  |
| COc1cc(Nc2c(C#N)cnc3cc(-n4cccc4CN(C)C)ccc23)c(Cl)cc1Cl [Example 93] | 610 nM and 680 nM | > 10000 nM | 157 to 158 °C |  |  |
| COc1cc(Nc2c(C#N)cnc3cc(-n4cccc4)c(OC)cc23)c(Cl)cc1Cl [Example 59, 4-(2,4-Dichloro-5-methoxyanilino)-6-methoxy-7-(1H-pyrrol-1-yl)-3-quinolinecarbonitrile] | 12 nM and 15 nM |  | 229 to 230 °C |  |  |
| COc1cc(Nc2c(C#N)cnc3cc(/C=C/c4ccccn4)ccc23)c(Cl)cc1Cl [Example 3, 4-(2,4-Dichloro-S-methoxyanilino)-7-[(E)-2-(2-pyrdinyl)ethenyl]-3-quinoline-carbonitrile] | 11 nM |  |  |  |  |
| (1-{4-[3-Cyano-4-(2,4-dichloro-5-methoxyanilino)-7-quinolinyl]benzyl }-4-piperidinyl) acetic acid [Example 100] | 0.57 nM | 340 nM and 400 nM |  |  |  |
| COc1cc(Nc2c(C#N)cnc3cc(-c4ccc(CNCCc5ccccn5)o4)ccc23)c(Cl)cc1Cl [Example 74, 4-(2,4-Dichloro-5-methoxyanilino)-7-[5-({[2-(2-pyridinyl)ethyl]amino}methyl)-2-furyl]-3-quinolinecarbonitrile] | 40 nM | 1400 nM | 130 to 135 °C |  |  |
| 4-(2,4-Dichloro-5-methoxyanilino)-7-(3-formyl)-3-quinolinecarbonitrile [Example 112] | 36 nM | 7300 nM |  |  |  |
| COc1cc(Nc2c(C#N)cnc3cc(-c4ccc(-c5ccccc5)cc4)ccc23)c(Cl)cc1Cl [Example 165, 7-[1,1-Biphenyl]-4-yl-4-(2,4-dichloro-5-methoxyanilino)-3-quinolinecarbonitile] |  | > 10000 nM |  |  | 28 |
| COc1cc(Nc2c(C#N)cnc3cc(-c4ccc(C=O)s4)ccc23)c(Cl)cc1Cl [Example 52, 4-(2,4-dichloro-5-methoxyanilino)-7-(5-formyl-2-thienyl)-3-quinolinecarbonitrile] | 11 nM |  | > 300 °C (dec.) |  |  |
| COc1cc(Nc2c(C#N)cnc3cc(-c4ccc(CN5CCC(O)CC5)s4)ccc23)c(Cl)cc1Cl [Example 89, 4-(2,4-dichloro-5-methoxyanilino)-7-{5-[(4-hydroxy-1-piperidinyl)methyl]-2-thienyl}-3-quinolinecarbonitrile] | 0.52 nM and 0.84 nM | 90 nM |  |  |  |

Continued, in another order:

| IC50 (Src) | GI50 [1] | melting point | Molecule | IC50 (Raf1 (c-Raf)) [nM] | ELISA c-src % inhibition (Src; at 10 nM) [% at 10 nM] |
| --- | --- | --- | --- | --- | --- |
|  |  | 214 to 215 °C | Cn1ccnc1Sc1ccc(Nc2c(C#N)cnc3cc(-c4ccc(CN5CCCCC5)o4)ccc23)cc1Cl [Example 155, 4-{3-Chloro-4-[(1-methyl-1H-imidazol-2-yl)sulfanyl]anilino}-7-[5-(1-piperidinylmethyl)-2-furyl]-3-quinolinecarbonitrile] | 20 |  |
| 22 nM | 6500 nM | 190 to 191 °C | COc1cc(Nc2c(C#N)cnc3cc(C#CCN4CCOCC4)ccc23)c(Cl)cc1Cl [Example 146, 4-(2 ,4-Dichloro-5-methoxyanilino)-7-[3-(4-morpholinyl)-1-propynyl]-3-quinolinecarbonitrile] |  |  |
| 170 nM | > 10000 nM | 269 to 270 °C | COc1cc(Nc2c(C#N)cnc3cc(-c4cc5ccccc5s4)ccc23)c(Cl)cc1Cl [Example 120, 7-(1-benzothien-2-yl)-4-(2,4-dichloro-5-methoxyanilino)-3-quinolinecarbonitrile] |  |  |
|  | 3000 nM | 262 to 263 °C | COc1cc(Nc2c(C#N)cnc3cc(-c4cccc(NC(C)=O)c4)ccc23)c(Cl)cc1Cl [Example 118, N-{3-[3-Cyano-4-(2,4-dichloro-5-methoxyanilino)-7-quinolinyl]phenyl}acetamide] |  |  |
|  | 5600 nM | 221 to 222 °C | COc1cc(Nc2c(C#N)cnc3cc(-c4cccc(N)c4)ccc23)c(Cl)cc1Cl [Example 174, 7-(3-Aminophenyl)-4-[(2,4-dichloro-5-methoxyphenyl)amino]-3-quinolinecarbonitrile] |  |  |
|  | > 10000 nM | > 260 °C | COc1cc(Nc2c(C#N)cnc3cc(-c4cnc(N5CCOCC5)nc4)ccc23)c(Cl)cc1Cl [Example 186, 4-(2,4-Dichloro-5-methoxyanilino)-7-[2-(4-morpholinyl)-5-pyrimidinyl]-3-quinolinecarbonitrile] |  |  |
